Test in all cases: SelectScreen Kinase Profiling, single point inhibition and IC50 for off-target kinases
Common to all, as to type: biochemical

Assay [1] concerns the target T1, off-target kinases (Homo sapiens, UniProt O15146).
T1 sequence (O15146 24-869): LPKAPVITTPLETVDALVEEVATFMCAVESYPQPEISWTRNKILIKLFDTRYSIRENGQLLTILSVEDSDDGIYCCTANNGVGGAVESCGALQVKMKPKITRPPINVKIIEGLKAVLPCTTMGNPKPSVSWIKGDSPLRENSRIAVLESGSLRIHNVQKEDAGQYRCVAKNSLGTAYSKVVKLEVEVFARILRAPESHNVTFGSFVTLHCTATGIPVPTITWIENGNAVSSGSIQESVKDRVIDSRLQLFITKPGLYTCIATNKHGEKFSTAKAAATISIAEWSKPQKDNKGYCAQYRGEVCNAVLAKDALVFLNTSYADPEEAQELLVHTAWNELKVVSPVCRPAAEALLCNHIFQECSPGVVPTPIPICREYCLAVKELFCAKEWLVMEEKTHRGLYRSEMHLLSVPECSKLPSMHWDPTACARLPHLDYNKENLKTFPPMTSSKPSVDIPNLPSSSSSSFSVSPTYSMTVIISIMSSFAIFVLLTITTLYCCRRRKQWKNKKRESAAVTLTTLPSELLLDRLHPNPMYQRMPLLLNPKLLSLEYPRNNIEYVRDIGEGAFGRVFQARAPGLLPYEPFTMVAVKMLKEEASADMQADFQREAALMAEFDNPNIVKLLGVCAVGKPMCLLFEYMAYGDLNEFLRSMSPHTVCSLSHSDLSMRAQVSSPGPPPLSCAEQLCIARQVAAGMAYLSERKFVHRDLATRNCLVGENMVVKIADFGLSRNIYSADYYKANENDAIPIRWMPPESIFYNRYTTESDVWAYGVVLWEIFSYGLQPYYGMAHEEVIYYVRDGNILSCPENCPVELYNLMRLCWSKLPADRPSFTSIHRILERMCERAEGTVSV
The following applies: MUSK, ZLYTE, ATP Km app.

The target in assay [2] is off-target kinases (Homo sapiens, UniProt P10721, V654A). The note with it: KIT V654A (mutant), LanthaScreen Binding. Background: Time-resolved FRET reads energy transfer from a long-lived donor to a nearby acceptor.
In assay [3] the target is T2, off-target kinases (Homo sapiens, UniProt Q04771).
T2 sequence (Q04771 21-509): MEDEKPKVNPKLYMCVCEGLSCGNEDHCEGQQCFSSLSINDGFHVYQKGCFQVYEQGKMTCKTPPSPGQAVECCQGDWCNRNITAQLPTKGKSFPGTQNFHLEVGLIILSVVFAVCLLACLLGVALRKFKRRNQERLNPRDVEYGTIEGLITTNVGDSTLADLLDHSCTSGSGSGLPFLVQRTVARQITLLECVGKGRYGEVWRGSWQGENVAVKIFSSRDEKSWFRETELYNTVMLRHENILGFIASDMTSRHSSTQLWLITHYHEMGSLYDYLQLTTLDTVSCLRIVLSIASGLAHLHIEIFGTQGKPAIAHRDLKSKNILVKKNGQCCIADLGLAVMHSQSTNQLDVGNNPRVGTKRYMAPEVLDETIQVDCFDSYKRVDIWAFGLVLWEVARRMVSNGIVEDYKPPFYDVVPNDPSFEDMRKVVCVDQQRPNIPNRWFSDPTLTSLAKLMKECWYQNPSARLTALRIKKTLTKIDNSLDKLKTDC
The following applies: ACVR1 (ALK2), LanthaScreen Binding.

Assay [4] has as its target off-target kinases (Homo sapiens, UniProt Q86UX6).
Assay [5] deals with off-target kinases (Homo sapiens, UniProt Q8N4C8). The following applies: MINK1, ATP Km app, ZLYTE.
In assay [6] the target is off-target kinases (Homo sapiens, UniProt Q9UKE5). The note with it: TNIK, LanthaScreen Binding.

Like-named read-outs stand apart in the source and are kept apart here.

This note sets out measurements from patent US11572590B2, “Methods for evaluating tumor cell spheroids using 3D microfluidic cell culture device” (Dana-Farber Cancer Institute, Inc., priority 2017, dated 2023).

Sequence of off-target kinases (Homo sapiens, UniProt Q86UX6) (Q86UX6 whole entry): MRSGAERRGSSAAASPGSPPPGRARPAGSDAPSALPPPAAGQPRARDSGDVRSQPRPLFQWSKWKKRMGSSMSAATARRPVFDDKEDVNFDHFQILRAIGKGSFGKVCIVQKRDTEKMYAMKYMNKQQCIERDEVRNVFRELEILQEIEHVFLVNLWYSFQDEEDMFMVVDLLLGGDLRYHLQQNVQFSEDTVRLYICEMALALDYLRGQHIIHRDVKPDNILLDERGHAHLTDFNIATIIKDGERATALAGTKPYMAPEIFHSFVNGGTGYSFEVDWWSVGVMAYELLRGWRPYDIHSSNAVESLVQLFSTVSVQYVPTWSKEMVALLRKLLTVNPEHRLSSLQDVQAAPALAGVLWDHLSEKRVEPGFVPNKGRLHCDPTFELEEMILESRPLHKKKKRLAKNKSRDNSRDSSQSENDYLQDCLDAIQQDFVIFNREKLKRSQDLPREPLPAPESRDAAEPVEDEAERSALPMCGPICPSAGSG
Sequence of off-target kinases (Homo sapiens, UniProt P10721, V654A) (P10721 26-976 V654A): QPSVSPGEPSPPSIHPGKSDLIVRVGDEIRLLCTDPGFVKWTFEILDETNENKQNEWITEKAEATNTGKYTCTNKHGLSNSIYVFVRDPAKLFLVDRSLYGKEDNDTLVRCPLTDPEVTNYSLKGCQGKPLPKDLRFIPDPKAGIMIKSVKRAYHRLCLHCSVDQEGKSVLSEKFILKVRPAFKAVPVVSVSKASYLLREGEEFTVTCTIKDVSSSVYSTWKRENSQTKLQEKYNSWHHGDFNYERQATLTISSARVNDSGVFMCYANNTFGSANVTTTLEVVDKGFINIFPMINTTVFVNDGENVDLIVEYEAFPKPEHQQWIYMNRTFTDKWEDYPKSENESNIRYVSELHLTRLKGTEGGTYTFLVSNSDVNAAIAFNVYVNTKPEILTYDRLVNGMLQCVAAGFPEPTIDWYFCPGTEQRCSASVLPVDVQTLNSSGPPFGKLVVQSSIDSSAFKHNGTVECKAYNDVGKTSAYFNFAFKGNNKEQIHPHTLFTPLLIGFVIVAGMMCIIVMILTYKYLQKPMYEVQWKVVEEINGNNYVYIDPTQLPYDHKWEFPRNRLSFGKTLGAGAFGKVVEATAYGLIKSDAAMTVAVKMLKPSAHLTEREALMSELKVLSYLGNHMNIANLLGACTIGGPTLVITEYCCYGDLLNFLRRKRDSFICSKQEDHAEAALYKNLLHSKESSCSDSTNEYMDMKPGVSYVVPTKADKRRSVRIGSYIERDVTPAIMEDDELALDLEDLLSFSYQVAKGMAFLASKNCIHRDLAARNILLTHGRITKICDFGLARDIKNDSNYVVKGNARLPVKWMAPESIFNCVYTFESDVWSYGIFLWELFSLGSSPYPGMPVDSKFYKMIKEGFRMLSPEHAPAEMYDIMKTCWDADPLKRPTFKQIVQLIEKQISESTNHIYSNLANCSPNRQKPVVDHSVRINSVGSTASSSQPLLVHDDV
Sequence of off-target kinases (Homo sapiens, UniProt Q8N4C8) (Q8N4C8 whole entry): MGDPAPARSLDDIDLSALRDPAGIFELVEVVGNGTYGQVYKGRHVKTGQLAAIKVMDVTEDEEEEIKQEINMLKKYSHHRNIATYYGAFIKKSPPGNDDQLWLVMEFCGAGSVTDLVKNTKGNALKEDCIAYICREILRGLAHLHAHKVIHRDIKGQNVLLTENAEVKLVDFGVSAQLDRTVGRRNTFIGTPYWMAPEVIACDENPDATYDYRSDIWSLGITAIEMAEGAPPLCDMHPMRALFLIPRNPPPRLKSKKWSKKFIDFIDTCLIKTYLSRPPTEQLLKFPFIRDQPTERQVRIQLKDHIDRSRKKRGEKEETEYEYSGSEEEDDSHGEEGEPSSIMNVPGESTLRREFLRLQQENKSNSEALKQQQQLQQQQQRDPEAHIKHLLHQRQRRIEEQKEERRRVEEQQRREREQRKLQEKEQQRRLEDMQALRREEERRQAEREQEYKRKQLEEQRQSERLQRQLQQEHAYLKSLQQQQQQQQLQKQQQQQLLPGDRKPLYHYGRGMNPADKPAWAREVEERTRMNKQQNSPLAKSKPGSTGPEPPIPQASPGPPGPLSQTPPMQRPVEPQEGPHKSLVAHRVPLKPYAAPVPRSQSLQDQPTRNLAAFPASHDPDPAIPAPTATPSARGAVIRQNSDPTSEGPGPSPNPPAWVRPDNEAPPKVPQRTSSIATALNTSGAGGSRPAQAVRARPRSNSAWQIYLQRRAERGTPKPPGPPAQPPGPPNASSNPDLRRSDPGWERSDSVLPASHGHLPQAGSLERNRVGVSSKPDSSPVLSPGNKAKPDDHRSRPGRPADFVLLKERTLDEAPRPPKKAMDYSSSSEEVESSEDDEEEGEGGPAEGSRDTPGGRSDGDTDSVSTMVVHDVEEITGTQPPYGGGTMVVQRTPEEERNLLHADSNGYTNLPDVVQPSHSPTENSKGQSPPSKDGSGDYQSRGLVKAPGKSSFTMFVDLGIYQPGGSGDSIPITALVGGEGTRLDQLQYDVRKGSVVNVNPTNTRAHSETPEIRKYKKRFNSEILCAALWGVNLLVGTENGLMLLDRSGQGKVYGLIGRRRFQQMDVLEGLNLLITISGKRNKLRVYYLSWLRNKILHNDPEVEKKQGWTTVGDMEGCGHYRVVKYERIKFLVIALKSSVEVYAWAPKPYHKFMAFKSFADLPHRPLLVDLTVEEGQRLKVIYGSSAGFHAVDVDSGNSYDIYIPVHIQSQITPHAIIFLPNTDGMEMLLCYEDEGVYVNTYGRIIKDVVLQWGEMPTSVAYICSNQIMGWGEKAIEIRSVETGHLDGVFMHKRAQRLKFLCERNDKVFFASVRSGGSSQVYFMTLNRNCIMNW
Sequence of off-target kinases (Homo sapiens, UniProt Q9UKE5) (Q9UKE5 whole entry): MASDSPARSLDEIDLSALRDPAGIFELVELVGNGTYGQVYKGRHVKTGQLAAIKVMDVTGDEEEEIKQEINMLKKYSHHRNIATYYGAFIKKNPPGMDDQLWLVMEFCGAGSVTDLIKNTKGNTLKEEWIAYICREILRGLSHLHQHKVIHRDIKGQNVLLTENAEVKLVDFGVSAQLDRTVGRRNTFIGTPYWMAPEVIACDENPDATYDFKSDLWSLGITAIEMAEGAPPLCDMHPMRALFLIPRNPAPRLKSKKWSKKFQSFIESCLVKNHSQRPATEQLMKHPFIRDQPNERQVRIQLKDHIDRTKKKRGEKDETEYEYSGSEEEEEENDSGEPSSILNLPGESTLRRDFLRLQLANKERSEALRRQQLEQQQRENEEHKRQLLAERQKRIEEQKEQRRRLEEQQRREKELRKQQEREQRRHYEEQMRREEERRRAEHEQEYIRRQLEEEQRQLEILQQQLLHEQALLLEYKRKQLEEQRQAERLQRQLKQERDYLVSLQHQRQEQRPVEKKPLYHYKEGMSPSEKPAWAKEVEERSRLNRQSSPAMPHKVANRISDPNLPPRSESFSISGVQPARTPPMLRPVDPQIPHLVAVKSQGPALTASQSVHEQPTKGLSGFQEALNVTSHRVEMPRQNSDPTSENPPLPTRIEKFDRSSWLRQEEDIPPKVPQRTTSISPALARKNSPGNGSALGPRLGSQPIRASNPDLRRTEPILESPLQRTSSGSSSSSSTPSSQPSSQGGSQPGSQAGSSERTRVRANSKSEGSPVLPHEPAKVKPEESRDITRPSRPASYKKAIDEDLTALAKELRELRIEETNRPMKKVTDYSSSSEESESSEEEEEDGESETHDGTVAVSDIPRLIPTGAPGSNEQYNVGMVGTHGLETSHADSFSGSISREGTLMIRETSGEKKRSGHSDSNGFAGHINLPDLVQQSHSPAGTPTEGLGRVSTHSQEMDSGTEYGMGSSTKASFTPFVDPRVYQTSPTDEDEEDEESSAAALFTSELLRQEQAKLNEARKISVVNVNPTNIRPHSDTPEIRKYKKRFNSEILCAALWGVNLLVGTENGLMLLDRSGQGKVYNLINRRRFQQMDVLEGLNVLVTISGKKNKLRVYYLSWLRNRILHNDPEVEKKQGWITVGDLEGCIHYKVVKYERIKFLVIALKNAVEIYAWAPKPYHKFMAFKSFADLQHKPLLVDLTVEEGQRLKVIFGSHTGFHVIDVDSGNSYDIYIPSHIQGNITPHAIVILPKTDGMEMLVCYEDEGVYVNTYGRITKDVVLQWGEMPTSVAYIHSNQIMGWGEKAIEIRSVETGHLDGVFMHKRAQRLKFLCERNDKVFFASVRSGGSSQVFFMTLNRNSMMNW

For orientation: inhibition means the change of the read-out against control, counted positive when it falls. With `N#Cc1cc(-c2ncnc(Nc3ccc(N4CCN(C5COC5)CC4)cc3)n2)ccc1OC1CCOCC1` [Compound 1, 5-(4-((4-(4-(oxetan-3-yl)piperazin-1-yl)phenyl)amino)-1,3,5-triazin-2-yl)-2-((tetrahydro-2H-pyran-4-yl)oxy)benzonitrile], the inhibition came out at 15% at off-target kinases [1] (read-out: % Inhibition 1); 8% on off-target kinases [1] (read-out: % Inhibition 2); 12% at off-target kinases [1] (read-out: % Inhibition Avg); 7% at off-target kinases [2] (read-out: % Inhibition 1); 10% on off-target kinases [2] (read-out: % Inhibition 2); 9% at off-target kinases [2] (read-out: % Inhibition Avg). For the same molecule, the inhibition is 85% at off-target kinases [3] (read-out: % Inhibition 1); 84% on off-target kinases [3] (read-out: % Inhibition 2); 84% on off-target kinases [3] (read-out: % Inhibition Avg); -4% at off-target kinases [4] (STK32C (YANK3), LanthaScreen Binding, read-out: % Inhibition 1); 3% at off-target kinases [4] (STK32C (YANK3), LanthaScreen Binding, read-out: % Inhibition 2); -1% on off-target kinases [4] (read-out: % Inhibition Avg). The inhibition at off-target kinases [5] (read-out: % Inhibition 1) stood at 66%; at off-target kinases [5] (read-out: % Inhibition 2), 70%; at off-target kinases [5] (read-out: % Inhibition Avg), 68%; on off-target kinases [6] (read-out: % Inhibition 1), 46%; at off-target kinases [6] (read-out: % Inhibition 2), 43%; on off-target kinases [6] (read-out: % Inhibition Avg), 45%.
